Measurements published in PubChem BioAssay AID248 (DTP/NCI, 2004).
Values joined by “and” are separate entries in the source; they are usually repeats but may differ in a detail not shown here. Equal values may be shown once. Inconclusive results and toxic doses are left out. Rule as the data show it: active = T/C of 150% or more; inactive = T/C below 125%.

System: L1210 leukemia ip in BDF1 mice, survival T/C
Assay: NCI In Vivo Anticancer Drug Screen. Data for tumor model L1210 Leukemia (intraperitoneal) in B6D2F1 (BDF1) mice
Conditions: endpoint: mean survival time, higher = longer survival
Summary of the method: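 Survival endpoint. Drug-treated group vs vehicle group, expressed as T divided by C. Tumor passaged by transplantation.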

[1] = dose: 100.0 mg/kg/injection, schedule: Q01DX009 (ip), vehicle: saline
[2] = dose: 100.0 mg/kg/injection, schedule: Q04DX003 (ip), vehicle: saline
[3] = dose: 200.0 mg/kg/injection, schedule: Q01DX009 (ip), vehicle: saline
[4] = dose: 200.0 mg/kg/injection, schedule: Q04DX003 (ip), vehicle: saline
[5] = dose: 400.0 mg/kg/injection, schedule: Q01DX009 (ip), vehicle: saline
[6] = dose: 400.0 mg/kg/injection, schedule: Q04DX003 (ip), vehicle: saline
[7] = dose: 100.0 mg/kg/injection, schedule: Q01DX001 (ip), vehicle: saline
[8] = dose: 100.0 mg/kg/injection, schedule: Q01DX009 (ip), vehicle: Klucel (hydroxypropylcellulose) (HPC)
[9] = dose: 100.0 mg/kg/injection, schedule: Q04DX003 (ip), vehicle: Klucel (hydroxypropylcellulose) (HPC)
[10] = dose: 200.0 mg/kg/injection, schedule: Q01DX009 (ip), vehicle: Klucel (hydroxypropylcellulose) (HPC)
[11] = dose: 200.0 mg/kg/injection, schedule: Q04DX003 (ip), vehicle: Klucel (hydroxypropylcellulose) (HPC)
[12] = dose: 100.0 mg/kg/injection, schedule: Q01DX001 (ip), vehicle: saline with Tween-80
[13] = dose: 100.0 mg/kg/injection, schedule: Q01DX009 (ip), vehicle: saline with Tween-80
[14] = dose: 200.0 mg/kg/injection, schedule: Q01DX001 (ip), vehicle: saline with Tween-80
[15] = dose: 200.0 mg/kg/injection, schedule: Q01DX009 (ip), vehicle: saline with Tween-80
[16] = dose: 400.0 mg/kg/injection, schedule: Q01DX001 (ip), vehicle: saline with Tween-80
[17] = dose: 400.0 mg/kg/injection, schedule: Q01DX009 (ip), vehicle: saline with Tween-80

Measured: T/C

O=C(CCCCC(=O)N/N=C\c1ccccn1)N/N=C\c1ccccn1
inactive: [1] 98 % of control | [2] 96 % of control | [3] 89 % of control | [4] 107 % of control | [5] 100 % of control | [6] 89 % of control

O=S1(=O)CCc2ccccc21
inactive: [7] 97 % of control | dose: 200.0 mg/kg/injection, schedule: Q01DX001 (ip), vehicle: saline 111 % of control | dose: 400.0 mg/kg/injection, schedule: Q01DX001 (ip), vehicle: saline 104 % of control

O=C(Nc1cccc(Cl)c1Cl)C(Cl)(Cl)Cl
inactive: dose: 100.0 mg/kg/injection, schedule: Q04DX002 (ip), vehicle: Klucel (hydroxypropylcellulose) (HPC) 100 % of control | dose: 200.0 mg/kg/injection, schedule: Q04DX002 (ip), vehicle: Klucel (hydroxypropylcellulose) (HPC) 104 % of control | dose: 400.0 mg/kg/injection, schedule: Q04DX002 (ip), vehicle: Klucel (hydroxypropylcellulose) (HPC) 88 % of control

CC(O)C(O)C(=O)OCc1ccccc1 (stereo not given)
inactive: [1] 117 % of control | [2] 101 % of control | [3] 102 % of control | [4] 103 % of control | [5] 110 % of control | [6] 98 % of control

O=C(/C=C1\C(=O)Nc2ccccc21)/C=C1/C(=O)Nc2ccccc21
inactive: [8] 93 % of control

CC1CCC(C(C)C)C(N(C)Cc2cc(Cl)cc(Cl)c2O)C1 (stereo not given)
inactive: dose: 50.0 mg/kg/injection, schedule: Q01DX009 (ip), vehicle: Klucel (hydroxypropylcellulose) (HPC) 107 % of control | [8] 105 % of control | [9] 104 % of control | [10] 107 % of control | [11] 98 % of control | dose: 400.0 mg/kg/injection, schedule: Q04DX003 (ip), vehicle: Klucel (hydroxypropylcellulose) (HPC) 101 % of control

CN(C)C=Nc1ccc(Cl)c2ccccc12
inactive: dose: 100.0 mg/kg/injection, schedule: Q01DX001 (ip), vehicle: Klucel (hydroxypropylcellulose) (HPC) 99 % of control | [9] 98 % of control | dose: 200.0 mg/kg/injection, schedule: Q01DX001 (ip), vehicle: Klucel (hydroxypropylcellulose) (HPC) 96 % of control | [11] 101 % of control | dose: 400.0 mg/kg/injection, schedule: Q01DX001 (ip), vehicle: Klucel (hydroxypropylcellulose) (HPC) 97 % of control

NC(=O)C1CCC(C(N)=O)CC1 (stereo not given)
inactive: [12] 106 % of control | [13] 100 % of control | dose: 100.0 mg/kg/injection, schedule: Q04DX003 (ip), vehicle: saline with Tween-80 100 % of control | [14] 98 % of control | [15] 100 % of control | dose: 200.0 mg/kg/injection, schedule: Q04DX003 (ip), vehicle: saline with Tween-80 115 % of control | [16] 98 % of control | [17] 107 % of control | dose: 400.0 mg/kg/injection, schedule: Q04DX003 (ip), vehicle: saline with Tween-80 102 % of control

CCOC(=O)c1ccc(NC(=O)Oc2ccc(-c3ccccc3)cc2)cc1
inactive: [12] 96 % of control | [13] 97 % of control and 102 % of control | dose: 100.0 mg/kg/injection, schedule: Q04DX002 (ip), vehicle: saline with Tween-80 94 % of control and 100 % of control | [14] 88 % of control | [15] 92 % of control and 97 % of control | dose: 200.0 mg/kg/injection, schedule: Q04DX002 (ip), vehicle: saline with Tween-80 101 % of control and 88 % of control | [16] 96 % of control | [17] 93 % of control and 100 % of control | dose: 400.0 mg/kg/injection, schedule: Q04DX002 (ip), vehicle: saline with Tween-80 97 % of control

CCCc1nc2ccccc2c(=O)n1/N=C/c1ccccc1O
inactive: [8] 97 % of control | [10] 102 % of control | dose: 400.0 mg/kg/injection, schedule: Q01DX009 (ip), vehicle: Klucel (hydroxypropylcellulose) (HPC) 103 % of control

CC(O)C(O)C(O)C(/C=N\NC(N)=S)=N/NC(N)=S (stereo not given)
inactive: [1] 95 % of control | [2] 104 % of control | [3] 89 % of control | [4] 105 % of control | [5] 90 % of control | [6] 94 % of control

COc1cccc(NC(=S)NC2CCCCCCCCCCC2)c1
inactive: dose: 100.0 mg/kg/injection, schedule: Q04DX002 (ip), vehicle: gum acacia 94 % of control | dose: 200.0 mg/kg/injection, schedule: Q04DX002 (ip), vehicle: gum acacia 94 % of control | dose: 400.0 mg/kg/injection, schedule: Q04DX002 (ip), vehicle: gum acacia 94 % of control

CN(C)c1ccc2c(c1)C(=P(c1ccccc1)(c1ccccc1)c1ccccc1)c1ccccc1-2
inactive: dose: 63.0 mg/kg/injection, schedule: Q01DX015 (ip), vehicle: carboxymethylcellulose (CMC) 103 % of control | dose: 100.0 mg/kg/injection, schedule: Q01DX001 (ip), vehicle: carboxymethylcellulose (CMC) 97 % of control | dose: 125.0 mg/kg/injection, schedule: Q01DX015 (ip), vehicle: carboxymethylcellulose (CMC) 94 % of control | dose: 200.0 mg/kg/injection, schedule: Q01DX001 (ip), vehicle: carboxymethylcellulose (CMC) 101 % of control | dose: 250.0 mg/kg/injection, schedule: Q01DX015 (ip), vehicle: carboxymethylcellulose (CMC) 100 % of control | dose: 400.0 mg/kg/injection, schedule: Q01DX001 (ip), vehicle: carboxymethylcellulose (CMC) 90 % of control | dose: 500.0 mg/kg/injection, schedule: Q01DX015 (ip), vehicle: carboxymethylcellulose (CMC) 89 % of control

CC(C)=CC1C(C(=O)OC2CCN(C)CC2)C1(C)C (stereo not given)
inactive: dose: 25.0 mg/kg/injection, schedule: Q01DX001 (ip), vehicle: saline 98 % of control | dose: 50.0 mg/kg/injection, schedule: Q01DX001 (ip), vehicle: saline 98 % of control | [7] 101 % of control and 107 % of control
